What was measured:
Assay type in all cases: cell-based, human
[1] = tested on: hESC-CM cultures; assay: action potential (AP) phenotyping of hESC-CMs under current clamp after manipulation of NRG-1β/ErbB signaling
Method: At 14 days following induction with activin A, hESC-CMs were dispersed using 0.1 U/ml of dispase (Invitrogen) with 63 U/ml DNase I (Invitrogen) and replated at low density onto 0.5% gelatin-coated glass coverslips. After a few days of additional culture, the spontaneously generated action potentials (APs) of the hESC-CMs were recorded using a HEKA EPC-10 amplifier (HEKA, Lambrecht, Germany), operated in current-clamp mode. Note that the EPC-10 has a true “voltage follower” circuit, similar to a classical microelectrode amplifier (Magistretti et al., “Modalities of Distortion of Physiological Voltage Signals by Patch-Clamp Amplifiers: a Modeling Study,” Biophys J. 74(2 Pt 1):831-842 (1998) and Magistretti et al., “Action Potentials Recorded with Patch-Clamp Amplifiers: Are They Genuine?” Trends Neurosci. 19(12):530-534 (1996), which are hereby incorporated by reference in their entirety). […] Patch pipettes with a resistance of 2-4 MΩ were used; cells with a series resistance of >10 MΩ were discarded. […] Action potential parameters were analyzed by an individual blinded to culture conditions, using Patchmaster (HEKA) and Igor Pro software. […]

[2] = tested on: cGATA6-EGFP-transduced hESC-CM cultures; assay: cGATA6-EGFP reporter: fraction of EGFP+ putative nodal cells; conditions: cGATA6-EGFP transduced hESC-CMs, ~50% transduction efficiency; control 15%
Method: Prior to lentiviral transduction, hESC-CMs were replated onto glass coverslips as described for electrophysiological studies and allowed to recover for 4-5 days. Cells were then exposed to cGATA6-EGFP lentivirus (at 5000 LPs/cell, added to their usual RPMI-B27 medium) for 12 hours. […] Transduced cell preparations were then used in either electrophysiological or immunocytochemical studies at 3-4 days post-transduction.
Dissociated hESC-CMs were cultured on glass cover slips, fixed, and immunostained as previously described (Laflamme et al., “Cardiomyocytes Derived from Human Embryonic Stem Cells in Pro-Survival Factors Enhance Function of Infarcted Rat Hearts,” Nat. Biotechnol. 25(9):1015-1024 (2007), McDevitt et al., “Proliferation of Cardiomyocytes Derived from Human Embryonic Stem Cells is Mediated Via the IGF/PI 3-Kinase/Akt Signaling Pathway,” J Mol Cell Cardiol. 39(6):865-873 (2005), Laflamme et al., “Formation of Human Myocardium in the Rat Heart from Human Embryonic Stem Cells,” Am J. Pathol. 167(3):663-671 (2005), and Minami et al., “Extracardiac Progenitor Cells Repopulate Most Major Cell Types in the Transplanted Human Heart,” Circulation 112(19):2951-2958 (2005), which are hereby incorporated by reference in their entirety). […] Each experimental condition was assayed in triplicate, and a minimum of 500 nuclei were counted per sample. […]

[3] = tested on: hESC-CM cultures; assay: quantitative RT-PCR of cardiac subtype-specific genes; conditions: treated hESC-CMs vs control, normalized to GAPDH
Method: Total RNA was prepared by lysing cell preparations with the Qiagen RNEasy kit, followed by DNase treatment. After confirming the quality of the RNA using an Agilent Bioanalyzer 2100, it was reverse-transcribed into cDNA using the Superscript III first-strand cDNA synthesis kit (Invitrogen). Tables 2 and 3 list the primers used for semi-quantitative and quantitative RT-PCR reactions, respectively. All primer pairs were designed to be intron-spanning Quantitative real-time PCR reactions were performed using the SYBR green dye system and an Applied Biosystems 7900HT instrument. Cycling conditions were 10 minutes at 95° C., and 40 cycles of 30 seconds at 95° C., 30 seconds at 55° C., and 30 seconds at 72° C. mRNA levels were normalized using GAPDH as an internal control, and adult human heart cDNA was always run in parallel as a positive control.
In the preceding experiments, manipulation of NRG-1β/ErbB signaling changed the relative abundance of the two cardiac subtypes, as determined by both AP phenotyping and activation of the nodal-specific cGATA6-EGFP genetic reporter. To confirm these findings with an independent, molecular approach, quantitative RT-PCR was used to compare the expression of 18 subtype-specific genes in control, AG1478, and NRG-1β ligand-treated hESC-CM cultures (see Table 4). […] In sum, activation of NRG-1β/ErbB signaling increased the expression of genes associated with working cardiomyocytes, while its blockade with AG1478 increased the expression of genes associated with the nodal subtype.

[4] = tested on: Akt and ERK kinases in hESC-CM cultures; assay: Western blot analysis of Akt and Erk phosphorylation; conditions: hESC-CMs day 10 post-induction, 10 minutes, 10 or 100 ng/ml NRG-1β, with or without 25 μg/ml anti-NRG1β antibody
Method: For this, hESC-CMs (˜5×10^6 […] per well) were treated on day 10 post-induction with 0, 10, or 100 ng/ml NRG-1β (R&D Systems) in the presence or absence of 25 μg/ml anti-NRG1β neutralizing antibody (R&D Systems) for 10 minutes. After treatment, cells were rinsed twice with ice-cold PBS and lysed for 20 minutes on ice with 250 μl of extraction buffer (25 mM Tris-HCl (pH 7.4), 150 mM NaCl, 2 mM EDTA, 10 mM Na2SO4, and 1% Triton X-100 supplemented just prior to use with 50 mM NaF, 1 mM sodium orthovanadate, 1 mM phenylmethylsulfonyl fluoride, and a protease inhibitor cocktail (Sigma)). Lysates were collected with a cell scraper, placed in microcentrifuge tubes, vortexed for 3 minutes at 4° C., and then spun at 4° C. for 20 minutes at 12,000 g to discard cell debris. The resultant protein lysates were then denatured at 95° C. for 10 minutes and loaded (at 30 μg/lane) onto a denaturing 10% SDS/polyacrylamide gel, electrophoresed, and then transferred onto a PVDF membrane. The PVDF blot was blocked for 1 hour at room temperature in 1×TBST (150 mM NaCl, 10 mM Tris-HCl (pH 7.4), and 0.1% Tween) plus 5% nonfat milk, probed overnight with anti-phosphorylation Akt and anti-phosphorylation Erk1/2 antibodies (Cell Signaling), and then incubated with peroxidase-conjugated goat anti-mouse IgG antibody (Sigma). […]

COc1cc2ncnc(Nc3cccc(Cl)c3)c2cc1OC [AG1478]
proportion of cells exhibiting a nodal-like AP phenotype ([1]; differentiating hESC-CM cultures, control 21%): 52% | percentage of EGFP+ putative nodal cells [2]: 25% | expression of HCN4 relative to control cells [3]: 2.0 fold | expression of Tbx-3 (TBX3) relative to control cells [3]: 2.6 fold

B1: NRG1β ligand: NRG-1β (R&D Systems), exogenous neuregulin-1β agonist of ErbB receptors (protein)
chain: TSHLVKCAEKEKTFCVNGGECFMVKDLSNPSRYLCKCPNEFTGDRCQNYVMASFYKHLGIEFMEAEELYQK
effect on fraction of nodal cells (AP phenotyping) ([1]; exogenous NRG-1β 100 ng/ml, day 5 to 12 or continuously after day 5, versus control): a trend toward the opposite effect (i.e., a reduction in the fraction of nodal cells) | expression of NPPA (atrial natriuretic factor, ANF) relative to controls [3]: 2.6 fold | phosphorylation (activation) of Akt and ERK kinases [4]: phosphorylated | phosphorylation (activation) of Akt and ERK kinases ([4]; listed as NRG-1β agonist): activation of both kinases

Source: patent US8815593B2, “Induction of human embryonic stem cell derived cardiac pacemaker or chamber-type cardiomyocytes by manipulation of neuregulin signaling” (University of Washington, priority 2008, dated 2014)
